Measured values from PubChem BioAssay (NCI).
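All cell lines were grown in 96-well plates and treated with compound for 48 hours. Abbreviation: GI50, concentration required for 50% inhibition of growth. Definition used: TGI = concentration required for complete inhibition of growth.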

Tests used:
Experiment in all cases: DTP human tumour cell line panel, 48 h
[1] = test system: NCI-H23 lung
[2] = test system: MCF7 breast
[3] = test system: EKVX NSCLC
[4] = test system: DU-145 prostate
[5] = test system: ACHN renal
[6] = test system: SN12C renal
[7] = test system: SF-295 CNS
[8] = test system: OVCAR-4 ovarian
[9] = test system: CAKI-1 renal
[10] = test system: PC-3 prostate

Compound | GI50 [1] [µM] | TGI [1] [µM] | GI50 [2] [µM] | TGI [2] [µM] | GI50 [3] [µM] | TGI [3] [µM] | GI50 [4] [µM] | TGI [4] [µM] | GI50 [5] [µM] | TGI [5] [µM] | GI50 [6] [µM] | TGI [6] [µM] | GI50 [7] [µM] | TGI [7] [µM] | GI50 [8] [µM] | TGI [8] [µM] | GI50 [9] [µM] | TGI [9] [µM] | GI50 [10] [µM] | TGI [10] [µM]
COc1cc(C2CC(c3cccc(Nc4ccncc4)c3)=NN2c2ccc(Cl)cc2)cc(OC)c1OC (stereo not drawn) | 1.67 | 3.28 | 1.72 | 3.61 | 1.46 | 2.88 | 1.78 | 3.17 | 1.54 | 2.88 | 1.54 | 2.95 | 1.68 | 3.05 | 1.62 | 3.08 | 1.41 | 2.76 | 1.4 | 3
O=C(Nc1ccc([N+](=O)[O-])cc1[N+](=O)[O-])C(=O)C(C(=O)c1ccc2ccccc2c1)C1OC(=O)c2ccccc21 (stereo not drawn) | – | 26 | – | – | – | 48 | – | – | – | 73.2 | – | 54.7 | – | 55.1 | – | 60.3 | – | 54 | – | –
CN(C)CCNC(=O)c1cccc2ccc(-c3ccc(F)cc3)nc12 | – | 17.1 | – | 20.5 | – | – | – | – | – | – | – | 25.2 | – | 19.7 | – | 18.3 | – | 15.3 | – | –
Nc1n[nH]c(=O)c2c1c(I)cn2C1OC(CO)C(O)C1O (stereo not drawn) | – | 1.96 | – | – | – | 7.85 | – | – | – | > 100 | – | 66.1 | – | 9.74 | – | 14.4 | – | – | – | –
Oc1cn(-c2ccc(Cl)cc2)nc1-c1n[nH]c(=S)n1-c1ccccc1 | – | 23.9 | – | 21.9 | – | 82.1 | – | > 100 | – | > 100 | – | > 100 | – | 19.8 | – | > 100 | – | 35.3 | – | > 100
CC(C)(C)[Si](C)(C)Oc1ccc(C2CNC(=O)C23CCC(=O)N3Cc2ccccc2)cc1 (stereo not drawn) | – | 25.5 | – | 17.6 | – | 22.4 | – | 38.7 | – | 30.9 | – | 35.9 | – | 30.6 | – | 29.1 | – | 45 | – | 35.7
Cc1cc2c(cc1C(=O)c1ccc(N)cc1)OCO2 | – | > 100 | – | 53.8 | – | > 100 | – | > 100 | – | > 100 | – | > 100 | – | 86 | – | – | – | 66.4 | – | > 100
COc1cc(/C=C/C(=O)Oc2ccc(NC(C)=O)cc2)ccc1C(=O)O/C=C/c1ccccc1 | – | > 100 | – | > 100 | – | > 100 | – | – | – | – | – | > 100 | – | > 100 | – | > 100 | – | – | – | –
CC(=O)O[C@H]1CC[C@@]2(C)C(=CC[C@H]3[C@@H]4C/C(=C\c5ccc(N(C)C)cc5)[C@H](OC(C)=O)[C@@]4(C)CC[C@@H]32)C1 | – | 30.9 | – | 26.6 | – | 36.7 | – | > 100 | – | 24.4 | – | 37.9 | – | 21 | – | 69 | – | – | – | 16.7
COc1ccc(C2=C3SC=c4ccccc4=C3ON=C2c2ccccc2)cc1 | – | > 100 | – | > 100 | – | > 100 | – | > 100 | – | > 100 | – | > 100 | – | > 100 | – | > 100 | – | > 100 | – | > 100
CCC(=O)O[C@H]1CC[C@H]2[C@@H]3CCC4=C/C(=N/OC(=O)c5cccc6cc7ccccc7nc56)CC[C@]4(C)[C@H]3CC[C@]12C | – | > 100 | – | > 100 | – | > 100 | – | > 100 | – | > 100 | – | > 100 | – | – | – | > 100 | – | > 100 | – | > 100
O=C1NI(C#Cc2ccccc2)c2ccccc21 | – | > 100 | – | 94.3 | – | – | – | > 100 | – | – | – | > 100 | – | > 100 | – | > 100 | – | > 100 | – | 79.6
Cc1c2cccc-2c(OCCO)cc2c3ccccc3n(C)c12 | – | > 100 | – | 20.8 | – | 8.69 | – | 20.6 | – | 24 | – | 14.4 | – | 16.9 | – | 15.1 | – | 26.6 | – | 11.5
C[C@H]1C(=O)O[C@@H]2CCN3CC=C(COC(=O)[C@](C)(O)[C@@]1(C)O)[C@H]23 | – | > 100 | – | > 100 | – | > 100 | – | > 100 | – | > 100 | – | > 100 | – | > 100 | – | > 100 | – | > 100 | – | > 100
Nc1ccccc1N=Cc1cc2cc([N+](=O)[O-])ccc2s1 | – | > 100 | – | 23 | – | 45.1 | – | 36.1 | – | 40.3 | – | > 100 | – | > 100 | – | – | – | > 100 | – | 30.9
CCc1nc(N)nc(N)c1-c1ccc([N+](C)(C)C)cc1 | – | > 100 | – | > 100 | – | > 100 | – | > 100 | – | > 100 | – | > 100 | – | > 100 | – | > 100 | – | > 100 | – | > 100
FC(F)(F)c1ccc2c(c1)nc(-c1ccc(Cl)cc1)n2CC1CCCN2CCCCC12 (stereo not drawn) | – | – | – | 29.8 | – | 23.4 | – | 30.4 | – | 27.9 | – | 26 | – | 31.7 | – | 35.6 | – | 33.3 | – | 23.7
